ChEMBL document CHEMBL1781901, “Toluidinesulfonamide hypoxia-induced factor 1 inhibitors: alleviating drug-drug interactions through use of PubChem data and comparative molecular field analysis guided synthesis” (J Med Chem, 2011)

Legend:
Cytochrome P450 2C9 = Cytochrome P450 2C9 (Homo sapiens, UniProt P11712); assay: Inhibition of CYP2C9 after 30 mins by luminescence assay; format: ADME
[1] = Inhibition of HIF-1 in human deferoxamine treated HCT-116 cells expressing HRE-bla gene pretreated for 30 mins before deferoxamine challenge measured after 24 hrs by fluorometric analysis; format: cell-based

Sequence of Cytochrome P450 2C9 (P11712 whole entry): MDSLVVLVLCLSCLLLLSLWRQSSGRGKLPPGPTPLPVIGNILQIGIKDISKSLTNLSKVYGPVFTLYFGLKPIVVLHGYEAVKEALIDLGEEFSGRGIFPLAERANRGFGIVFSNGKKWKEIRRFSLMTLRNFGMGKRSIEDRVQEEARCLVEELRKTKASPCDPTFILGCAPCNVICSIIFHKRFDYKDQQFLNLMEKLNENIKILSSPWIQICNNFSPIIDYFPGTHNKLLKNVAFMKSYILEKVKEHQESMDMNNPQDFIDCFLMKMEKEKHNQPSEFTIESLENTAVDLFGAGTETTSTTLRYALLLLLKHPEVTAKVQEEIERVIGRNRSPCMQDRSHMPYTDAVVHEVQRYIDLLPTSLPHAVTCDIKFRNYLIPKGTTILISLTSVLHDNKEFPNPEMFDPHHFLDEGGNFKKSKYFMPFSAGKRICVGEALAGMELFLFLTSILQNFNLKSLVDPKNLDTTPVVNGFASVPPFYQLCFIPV

Structure (SMILES)	EC50 (Cytochrome P450 2C9) [µM]	pIC50 [1]
COC(=O)c1ccc(C)c(N(C)S(=O)(=O)c2ccc(C)cc2)c1	15.8	5.8
COC(=O)c1ccc(C)c(NS(=O)(=O)c2ccc(OC)c(OC)c2)c1	2.51	< 5
COC(=O)c1ccc(C)c(NS(=O)(=O)c2ccc(OC)cc2)c1	3.98	7.2
COC(=O)c1ccc2c(c1)N(S(=O)(=O)c1ccc(C)cc1)CCO2	3.98	7
COC(=O)c1ccc(C)c(N(C)S(=O)(=O)c2ccc(OC)cc2)c1	25.1	6.2
COC(=O)c1ccc(C)c(NS(=O)(=O)c2ccc(C)cc2)c1	1.58	7.4
COC(=O)c1ccc(OC)c(NS(=O)(=O)c2ccc(OC)cc2)c1	39.8	5.5
COC(=O)c1ccc(C)c(NS(=O)(=O)c2ccc(NC(C)=O)cc2)c1	0.251	4.7
